According to the supplement of paper PMC10307832:

Assays:
Assay in all cases: relative viability (nuclei count vs DMSO), 5 days (fraction); higher = more cells survive
[1] = compound: C[As](C)SC[C@H](NC(=O)CC[C@H](N)C(=O)O)C(=O)NCC(=O)O [Darinaparsin] + C[C@]1(O)C[C@@H](c2nc(-c3ccc4ccc(-c5ccccc5)nc4c3)c3c(N)nccn32)C1 [Linsitinib] (partner 1 µM)
How it was run: (§1)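 Dosing by pin tool came one day after lung cancer cell lines were seeded in 1536-well plates, using either one drug or a fixed anchor-drug dose plus five library-drug doses (not always all listed) in √10 steps. After 5 days, nuclei were counted on 4× images. Relative viability is treated-well nuclei count divided by vehicle-well nuclei count, and values are medians of duplicate plates.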

QS11 + Foretinib = compound: C1CC2=C(C1)C=C(C=C2)OC3=NC(=C4C(=N3)N(C=N4)CC5=CC=C(C=C5)C6=CC=CC=C6)N[C@@H](CC7=CC=CC=C7)CO [QS11] + COc1cc2c(Oc3ccc(NC(=O)C4(C(=O)Nc5ccc(F)cc5)CC4)cc3F)ccnc2cc1OCCCN1CCOCC1 [Foretinib] (partner 0.25 µM)
How it was run: as §1

QS11 + Linsitinib = compound: C1CC2=C(C1)C=C(C=C2)OC3=NC(=C4C(=N3)N(C=N4)CC5=CC=C(C=C5)C6=CC=CC=C6)N[C@@H](CC7=CC=CC=C7)CO [QS11] + C[C@]1(O)C[C@@H](c2nc(-c3ccc4ccc(-c5ccccc5)nc4c3)c3c(N)nccn32)C1 [Linsitinib] (partner 1 µM)
How it was run: as §1

[2] = compound: C[As](C)SC[C@H](NC(=O)CC[C@H](N)C(=O)O)C(=O)NCC(=O)O [Darinaparsin] + Cc1cc(Nc2cc(N3CCN(C)CC3)nc(Sc3ccc(NC(=O)C4CC4)cc3)n2)n[nH]1 [Tozasertib] (partner 0.1 µM)
How it was run: as §1

Cell Line	relative viability ([1]; first compound 0.08 µM)	relative viability ([1]; first compound 0.8 µM)	relative viability ([1]; first compound 2.53 µM)	relative viability ([1]; first compound 8 µM)	relative viability (QS11 + Foretinib; first compound 0.08 µM)	relative viability (QS11 + Foretinib; first compound 0.253 µM)	relative viability (QS11 + Foretinib; first compound 0.8 µM)	relative viability (QS11 + Foretinib; first compound 2.53 µM)	relative viability (QS11 + Foretinib; first compound 8 µM)	relative viability (QS11 + Linsitinib; first compound 0.253 µM)	relative viability (QS11 + Linsitinib; first compound 0.8 µM)	relative viability (QS11 + Linsitinib; first compound 2.53 µM)	relative viability (QS11 + Linsitinib; first compound 8 µM)	relative viability ([2]; first compound 0.08 µM)	relative viability ([2]; first compound 0.8 µM)	relative viability ([2]; first compound 2.53 µM)	relative viability ([2]; first compound 8 µM)	relative viability (QS11 + Linsitinib; first compound 0.08 µM)
NCI-H520	1.02	1.08	0.863	0.985	0.703	1.08	1.12	0.792	0.867	0.986	1.09	1.18	1.11	0.468	0.369	0.348	0.409	–
NCI-H596	1.3	0.934	0.928	1.27	0.979	0.743	0.924	0.841	0.97	1.02	1.01	1.1	1.16	1.13	0.958	0.872	0.979	1.04
NCI-H647	1.84	1.1	1.17	1.53	1.17	1.24	0.988	1.09	1.06	1.21	1.17	1.21	1.23	0.0828	0.282	0.232	0.385	1.12
NCI-H650	1.26	0.9	0.801	0.871	1	1.11	0.994	0.924	1.02	0.943	0.859	0.87	0.929	0.788	0.693	0.792	0.807	0.81
NCI-H661	0.558	0.569	0.526	0.593	1	1.02	0.913	1.05	1.03	0.681	0.556	0.408	0.549	0.357	0.351	0.377	0.361	0.522
NCI-H727	0.3	0.225	0.319	0.354	1.2	0.888	0.829	1.06	0.869	0.296	0.338	0.316	0.289	0.731	0.552	0.699	0.599	0.287
NCI-H838	1.28	0.962	0.997	1.24	0.993	0.953	0.688	0.898	0.85	0.879	0.7	0.837	0.851	0.275	0.24	0.256	0.304	1.07
NCI-H1355	0.805	0.746	0.686	0.838	1.01	0.911	0.775	0.931	1.05	0.791	0.671	0.84	0.712	0.571	0.568	0.44	0.499	0.762
NCI-H1395	1.01	0.995	0.97	0.991	0.893	0.964	1.02	1	1.09	1.01	1.17	1.16	1.18	0.839	0.771	0.765	0.723	–
